The values that follow come from patent US12478677B2, “Tunable luminescent organic salts for enhanced imaging and photodynamic therapy” (BOARD OF TRUSTEES OF MICHIGAN STATE UNIVERSITY, priority 2017, dated 2025).

The nature of series [1]: Nanoparticle aggregation size from SEM images. In kind it is physicochemical. As to conditions: no observable precipitation. From the text: FIG. 6. is a graph showing exemplary nanoparticle aggregation size distribution measured from SEM images (inset, scale bar=100 nm) of CyTPFB. Average aggregate size is 5.6±1.8 nm with no observable precipitation. […] This is achieved by cation-anion pairs of luminescent organic salts that can be modulated to be either non-toxic for enhanced imaging, or phototoxic for improved PDT. […] IR polymethine cyanine dyes, which have been used as effective theranostics are described. […] This is thought to occur through a mechanism mitigated by tumor vascularization, increased retention in cancer cells, and mitochondrial depolarization. Once in the cell, they accumulate in the mitochondria and lysosomes, where irradiation induces generation of cytotoxic oxygen species. A strategy is described for preventing or inhibiting salt dissociation in cells: aggregates are formed via introduction of the salt into an aqueous media by a solvent vehicle, forming particles with diameters of about 5 nm in size with no precipitation observed. […] This is confirmed by high resolution mass spectrometry, electron microscopy, and UV-Vis spectroscopy. […] Normalized absorption data are sown in FIGS. 7A, 7B, and 7C. This is likely due to steric effects, where if the counterion radius is too small it is not able to protect the nanoparticle stability. […]

For another series, the system named is mitochondrial superoxide. As to the kind of experiment: MitoSOX measurement of mitochondrial superoxide. As to conditions: A549 cells treated 4 days at phototoxic concentrations; with or without light. In kind it is cell-based, human. From the text:
FIG. 22. Luminescent organic salts generate mitochondrial ROS. […] MitoSOX is used to measure mitochondrial superoxide, and H2DCFDA for general cytoplasmic ROS in A549 cell treated with organic salts at indicated phototoxic concentrations for 4 days.
Photoactive agents accumulate in the mitochondria of cancer cells and generate reactive oxygen species (ROS) with light exposure, depolarizing the mitochondrial membrane potential to cause cell death. Small molecule protective agents that quench ROS have been used to decrease their phototoxicity. However, the exact type of ROS generated by each luminescent agent remains unclear. Photo-induced ROS include singlet oxygen, superoxide radical anion, hydrogen peroxide, hydroxyl radical and others (see FIG. 21). Superoxide is a highly reactive and biologically toxic species deployed in nature to kill invading organisms. It is often formed as a byproduct of mitochondrial respiration but is typically quenched by the highly efficient superoxide dismutase. Hydroxyl radicals are also highly reactive, damaging nearly all forms of biological molecules. Unlike superoxide radical, the hydroxyl radical cannot be easily quenched naturally via enzymes, and endogenous antioxidants are typically required. Singlet oxygen is the excited state of the common triplet oxygen (O2 ground state) and is highly reactive towards organic compounds. Singlet oxygen can be eliminated in mammalian systems by antioxidants. A range of nitroxy radicals can subsequently stem from superoxide (peroxynitrite) or peroxide (nitrogen dioxide) species. […] Each luminescent cation-anion pair generates specific ROS resonant with its own energy level, and cell types can be targeted by generating the key sensitizing ROS. For example, it is expected that CyFPhB is phototoxic (see FIGS. 11A and 11B and 12A and 12B) by generating reactive oxygen species, which can be resonant with its molecular orbital energy levels (FIG. 21). […] No cytoplasmic ROS is detected using general cytoplasmic ROS probe H2DCFDA. […]

“Also recorded” adds a separate entry of the source.

The compound `CCN1C(=CC=C2CCCC(C=CC3=[N+](CC)c4ccc5ccccc5c4C3(C)C)=C2Cl)C(C)(C)c2c1ccc1ccccc21.Fc1c(F)c(F)c([B-](c2c(F)c(F)c(F)c(F)c2F)(c2c(F)c(F)c(F)c(F)c2F)c2c(F)c(F)c(F)c(F)c2F)c(F)c1F` [CyTPFB] had an Average aggregate size in series [1] of 5.6±1.8 nm. The “Mitochondrial superoxide / ROS generation (MitoSOX), in words” value in the series on mitochondrial superoxide is listed as “generating minimal ROS even with light at high concentrations; also recorded: generating minimal superoxide even with light”.
